This is an account of results in PMC9380819 (ACS Omega, 2022).

For data set [1], the target named is SARS-CoV-2 spike RBD (331–528 amino acids) (Severe acute respiratory syndrome coronavirus 2, UniProt P0DTC2). Description: biochemical. Format: binding.
In data set [2] the target is SARS-CoV-2 spike RBD: hACE2 (Severe acute respiratory syndrome coronavirus 2, UniProt P0DTC2). The class given is biochemical.
In data set [3] the test system is SARS-CoV-2. The class given is cell-based.
In data set [4] the test system is SARS-CoV-2. The note with it: cited from earlier work.
Data set [5] relates to SARS-CoV-2. The note with it: Vero cells; cited from earlier work.
Data set [6] deals with ACE2. As to conditions: read-out: IC50 exopeptidase activity; cited from earlier work.
Data set [7] deals with SARS-CoV-2. The note with it: 10 μM, after 48 h; cited from earlier work.
In data set [8] the test system is SARS-CoV-2 (isolate USA WA1/2020). Description: microbe, parasite or virus in culture. As to conditions: Severe acute respiratory syndrome coronavirus 2, Calu-3. The class given is cell-based.
Data set [9] can be described thus: in vitro. The note with it: human.
Data set [10] deals with spike protein–ACE2 interaction. As to conditions: not tested against virally infected cells; cited from earlier work.
The subject of data set [11] is SARS-CoV-2. As to conditions: cited from earlier work. This is another data set of the same source.

“Also recorded” adds a separate entry of the source.

By Kd is commonly meant the equilibrium constant for the complex coming apart. A low value points to tighter binding. `CC(C)NCC(O)COc1cccc2[nH]ccc12` (stereo not drawn) [pindolol, Pindolol] gave a Kd in data set [1] of 0.57 ± 0.144 µM. Further, in data set [2], the “disruption of the interaction between the RBD and ACE2” value (from here on “disruption”) is on record as “none of the compounds tested were able to disrupt the interaction”.
The corresponding values for `CC(C)(C)NCC(O)COc1cccc2c1CCC(=O)N2` (stereo not drawn) [carteolol] are 0.459 ± 0.111 µM and “none of the compounds tested were able to disrupt the interaction”.
For the compound `CC(C)NCC(O)COc1ccc(COCCOC(C)C)cc1` (racemic) [bisoprolol, (±)-Bisoprolol hemifumarate], in data set [1], the “binding to the RBD spike in MST” value is given as “did not bind”. In addition, the “disruption” value in data set [2] is given as “none of the compounds tested were able to disrupt the interaction”. The “SARS-CoV-2 adsorption to Vero E6 cells” value in data set [3] is on record as “statistically decreased SARS-CoV-2 adsorption”.
Consider `CCN(CC)CCCC(C)Nc1c2ccc(Cl)cc2nc2ccc(OC)cc12` (stereo not drawn) [quinacrine], for which the “activity in A549-ACE2 cells” value in data set [4] was “sub-micromolar”.
In general, EC50 refers to the midpoint of the concentration-response curve. A word on the IC50: it is the concentration that gives 50% inhibition. `Oc1c(I)cc(Cl)c2cccnc12` [cliquinol]: the EC50 in data set [5] was 12.6 µM. Moreover, the IC50 in [6] was 5.36 µM.
`CCN(CC)CCOc1ccc2c(c1)C(=O)c1cc(OCCN(CC)CC)ccc1-2` [tilorone]: the “activity in A549-ACE2 cells” value in [4] is on record as “sub-micromolar”.
Regarding `CC(C)NCC(O)COc1ccc(CC(N)=O)cc1` (stereo not drawn) [atenolol], the “SARS-CoV-2 adsorption to Vero E6 cells” value in data set [3] was “statistically decreased SARS-CoV-2 adsorption”. Also, the “inhibition of SARS-CoV-2-induced cytotoxicity of Caco-2 cells” value in [7] is recorded as 25.84%.
On to `CCC(CC)COC(=O)[C@H](C)N[P@](=O)(OC[C@H]1O[C@@](C#N)(c2ccc3c(N)ncnn23)[C@H](O)[C@@H]1O)Oc1ccccc1` [Remdesivir], for which the EC50 in data set [8] came to 0.08 µM.
With `COc1ccccc1OCCNCC(O)COc1cccc2[nH]c3ccccc3c12` (stereo not drawn) [carvedilol], in data set [1], binding was put at a Kd of 0.364 ± 0.022 µM. In addition, the “disruption” value in data set [2] is listed as “none of the compounds tested were able to disrupt the interaction”. Moreover, in data set [3], the “SARS-CoV-2 adsorption to Vero E6 cells” value is “statistically decreased SARS-CoV-2 adsorption; also recorded: highest reduction on SARS-CoV-2 adsorption”. The same compound had an EC50 in [8] of 7.57 µM. Besides, the CC50 in [9] came to 18.1 µM. For the same compound, in data set [7], the “inhibition of SARS-CoV-2-induced cytotoxicity of Caco-2 cells” value was “did not show activity”.
Consider `O=c1c(O)c(-c2ccc(O)c(O)c2)oc2cc(O)cc(O)c12` [Quercetin], for which the IC50 in data set [10] is 7 µM.
As to `COc1ccc2nc3cc(Cl)ccc3c(Nc3cc(CN4CCCC4)c(O)c(CN4CCCC4)c3)c2n1` [pyronaridine], the “activity in A549-ACE2 cells” value in [4] is given as “sub-micromolar”. The “efficacy in a mouse model infected with SARS-CoV-2” value in data set [11] was “demonstrated efficacy”.
As for `CCCCC/C=C\C/C=C\CCCCCCCC(=O)O` [linoleic acid], in data set [2], the “disruption” value is “not able to disrupt the interaction”.
